{"source": "patent US12622863B2", "about": "“Injectable composition and use of said composition” (INNATE S.R.L., priority 2020, dated 2026)", "tested_on": "hyaluronidase", "test": "degradation of hyaluronic acid by standard hyaluronidase", "format": "biochemical", "description": "In the composition, the nicotinamide is not only a functional excipient adapted to protect the hyaluronic acid by virtue of its antioxidant action, but also acts against the action of the hyaluronidase, allowing the viscosupplementation features to be maintained over time. Experimental tests have shown that in a composition without nicotinamide, the hyaluronic acid is degraded by a 50% standard hyaluronidase after one hour; on the contrary, with a presence of nicotinamide in the percentages described above, the hyaluronic acid degrades by only 20% after one hour, while the normal products on the market degrade by 70%.", "data": [{"smiles": "NC(=O)c1cccnc1", "note": "[nicotinamide]", "values": [{"measurement": "inhibitory effect on hyaluronidase", "result": "inhibitory effect on hyaluronidase"}]}]}
